Measurements published in PubChem BioAssay AID179 (DTP/NCI, 2004).
pEC50, pIC50: −log10 of the molar value. Several values for one entry are separate records, joined by “and”; a condition that tells them apart may be missing. Equal entries are not always repeated. Activity calls are given as the source filed them.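 How the source made its calls: active means compounds giving half or more protection of infected cells from virus-caused growth loss, again on retest; inactive means the rest.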

System: CEM cells HIV-1 protection, formazan growth assay
Assay: NCI AIDS Antiviral Assay
Conditions: for pIC50: measured here: growth of uninfected CEM cells
How it was run: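 Category rules: moderately active means at least 50% protection on retest, and confirmed active means 100% protection reproducibly. The underlying data came from a formazan growth assay in HIV-1-infected CEM cells.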

Compound	pEC50	pIC50	outcome
O=C(Nc1ccc(F)c(Cl)c1)Nc1cc(Cl)ccc1SSc1ccc(Cl)cc1NC(=O)Nc1ccc(F)c(Cl)c1	< 4.18	4.93	–
CC1(C)C2CCC1(C)C(NC(=O)COCCOCC(N)=O)C2 (stereo not given)	< 4.08	4.38	–
CN1CCN(CCn2c3c4ccccc4ccc3c3oc(=O)c4ccccc4c32)CC1	< 4.00	5.52	–
COc1ccc([C@@]2(O)c3c(ccc(O)c3OC)[C@H]2OC)c(OC)c1	< 4.80	5.03	–
CNC(=O)CN(CC(=O)O)C(=O)NC	< 2.91	< 2.91	–
COc1ccc(/C=C2\Cc3ccccc3C2=O)cc1OC	< 4.45	< 4.45	–
COc1ccc(/C(=N\NC(=O)NN)C(c2ccc(OC)cc2)C2(O)C(=O)Nc3c(Cl)cc(Cl)cc32)cc1 (stereo not given)	< 5.02	< 5.02	–
CCCCCCCCCCCC1=C(O)C(N[C@@H]2CCCCC2N)=CC(=O)C1=O (stereo not given in full)	< 5.43	< 5.43	–
c1cnn(P2(n3cccn3)=NP(n3cccn3)(n3cccn3)=NP(n3cccn3)(n3cccn3)=NP(n3cccn3)(n3cccn3)=NP(n3cccn3)(n3cccn3)=NP(n3cccn3)(n3cccn3)=N2)c1	< 3.70	< 3.70	–
COc1cccc2c1OC(c1ccc(Cl)cc1)C([N+](=O)[O-])=C2 (stereo not given)	< 3.70	5.84	–
C=C(C)COc1cc(NC(=S)OC(C)C)ccc1Cl	6.09	5.32	–
Cc1ccc(OCC2OC(n3cnc4c(Cl)ncnc43)CC2Oc2ccc(C)cc2)cc1 (stereo not given)	< 3.70	5.16 and 4.91	–
CO[C@@H]1C2=CC=CC=C[C@H]2n2c(=O)n(C)c(=O)n21	< 3.28	4.10	–
N#Cc1nc(COCc2ccccc2)oc1N	< 3.70	4.02	–
COc1ccc(C2C3C(=O)OCCOC(=O)C3C2c2ccc(OC)c(OC)c2)cc1OC (stereo not given)	< 4.04	4.08	–
COC(=O)C1(C)NCCc2c1[nH]c1ccccc21 (stereo not given)	< 3.48	< 3.48	–
O=C(NC(C(F)(F)F)(C(F)(F)F)P(=O)(c1ccccc1)c1ccccc1)C(C(F)(F)F)C(F)(F)F	< 3.70	4.93	–
CC1=CC(Nc2ccc(S(=O)(=O)c3ccc(NC4=NCCNC(C)=C4)cc3)cc2)=NCCN1	< 3.70	< 3.70	–
CC(C)c1ccc2c(c1)C=C1OC(=O)[C@]3(C)CCC[C@@]2(C)C13 (stereo not given in full)	< 3.70	3.94	–
Cc1cc2nc3c(C(OC4OC(CO)C(O)C(O)C4O)C(O)CO)nn(-c4ccc(F)cc4)c3nc2cc1C (stereo not given)	–	–	inactive
NC(CSS(=O)(=O)O)=NCCSc1ccc(Cl)cc1	< 3.70	4.22	–

Compound	pEC50	pIC50	outcome
NC1=NC(=O)[C@H](Cc2c[nH]c3ccccc23)N1C(=O)OCc1ccccc1	< 3.70	3.92	–
CC1(Br)CN(C(=S)Nc2ccccc2)C1=O (stereo not given)	< 3.70	4.01	–
O=C(Nc1ccc(Cl)cc1)NS(=O)(=O)c1ccc2c(c1)CCC2	< 3.15	4.32	–
N.N.N.N.O=S([O-])[O-].[Co+3].[N-]=[N+]=[N-]	–	–	inactive
CCCCN(CCCC)CCNc1ccc(Cl)c2oc3cc(C)ccc3c(=O)c12	< 4.66	< 4.66	–
Cc1ccc2c3c(cnc2n1)C(=O)OCCN3C	< 3.70	< 3.70	–
Cc1cn(C2CC(N(O)C(N)=O)C(CO)O2)c(=O)[nH]c1=O (stereo not given)	< 3.70	< 3.70 and 3.97	–
CO[C@H](/C(C)=C/C=C/C(C)=C/c1coc(C)n1)[C@H](C)[C@H]1C[C@@H](O)[C@@]2(C)O[C@H]2/C=C/[C@@H](C)[C@@H]2C[C@@H](CC(=O)O2)C[C@H]2O[C@@H]2C(=O)O1	< 6.66	9.77	–
O=C(O)C12C3C4(C(=O)O)C1C1(C(=O)O)C2C3(C(=O)O)C41 (stereo not given)	< 3.70	< 3.70	–
O=C(NNC(=S)NC1CCCCC1)C12CC3CC(CC(C3)C1)C2	< 3.70	< 3.70	–
O=c1[nH]c(=O)n(C2OC(CO)C(O)C2O)cc1F (stereo not given)	< 4.70	8.20	–
COc1ccc2[nH]c3c([N+](=O)[O-])ccc(Cl)c3c(=O)c2c1	–	–	inactive
CCOC(=O)C(C(=O)OCC)=C1N[C@H](C(=O)OCC)CS1	< 3.53	< 3.53	–
CC(C)N1C(=O)NC2C1NC(=O)N2C(C)C (stereo not given) (tested in a mixture with another compound)	< 3.70	< 3.70	–
O=C1C(Cl)C(c2cccc([N+](=O)[O-])c2)N1n1cnc2ccccc2c1=O (stereo not given)	< 5.00	< 5.00	–
C=C1CN(S(=O)(=O)c2ccc(C)cc2)CCCN(Cc2ccsc2)CCCN(S(=O)(=O)c2ccc(C)cc2)C1	< 3.70	4.28	–
C/C=C/c1cc2c(c(=O)o1)C(=O)[C@@H](O)[C@H](C)O2	< 3.70	5.43	–
COC(=O)CCCC=C(c1cc(C)c(OC)c(C(=O)OC)c1)c1cc(C)c(OC)c(C(=O)OC)c1	5.62	4.05	–
COc1ccc(C2Oc3cc(OC)c(O)c(C)c3[C@H]2C)cc1 (stereo not given in full)	< 4.34	4.51	–
COC(=O)c1cc(C(=CCC23CC4CC(CC(C4)C2)C3)c2cc(Cl)c(OC)c(C(=O)OC)c2)cc(Cl)c1OC	< 4.76	< 4.76	–
COC(=O)C1=CC[C@@H]2C(C(=O)O)=CO[C@@H](OC3OC(CO)C(O)C(O)C3O)[C@H]12 (stereo not given in full)	< 3.70	< 3.70	–

Compound	pEC50	pIC50	outcome
COC(=O)C(Cc1ccccc1)NC(=O)C(CCCN=C(N)N)NC(=O)OCc1ccccc1 (stereo not given)	< 3.70	< 3.70	–
CNc1ccc(/C=C/c2ccnc3ccccc23)cc1	< 3.70	5.20	–
CCCCC/C=C/C/C=C/CCCCCCCC(=O)OCC(COC1OC(CS(=O)(=O)O)C(O)C(O)C1O)OC(=O)CCCCCCC/C=C/C/C=C/CCCCC (stereo not given)	< 4.56	< 4.56	–
CCOC(=O)OC(=S)N(C1CCCCC1)C1CCCCC1	< 3.70	4.01	–
Cc1cc2c(c(C=Nc3ccc(N(C)C)cc3)c1)OC1(C=C2)Oc2ccccc2C(=O)N1C (stereo not given)	< 4.38	4.88	–
CCOC(=O)Oc1c(Cl)cc(C(=CCC[C@H]2CC[C@@]3(C)[C@@H](CC[C@@H]4[C@@H]3CC[C@]3(C)[C@@H](C(C)CCCC(C)C)CC[C@@H]43)C2)c2cc(Cl)c(OC(=O)OCC)c(C(=O)OCC)c2)cc1C(=O)OCC (stereo not given in full)	–	–	inactive
CCN(CC)CCn1c(C)nc2c1C(=O)c1nc(C)n(CCN(CC)CC)c1C2=O	< 3.70	5.24	–
Brc1ccc(/C=C2\C=Cc3ccccc32)cc1	< 4.59	< 4.59	–
COC(=O)[C@]1(C)CCC[C@]2(C)C3CC4OOC3(C=C4C(C)(C)O)CCC21 (stereo not given in full)	< 3.60	4.41	–
N#C/C(=N/Nc1nc[nH]c1C(N)=O)C(=O)Nc1ccccc1	< 3.70	5.97	–
C=CCn1cnc2c(=O)[nH]c(Nc3ccccc3)nc21	< 3.82	< 3.82	–
COC(=O)[C@@H]1C[C@H]([Se]c2ccccc2)CN1C(=O)OCc1ccccc1	–	–	inactive
NC(=S)Nc1ccc2c(c1)oc1ccccc12	< 3.70	< 3.70	–
C[C@]12CC[C@H](OC(=O)Cc3ccc(N(CCCl)CCCl)cc3)CC1CC[C@@H]1C2CC[C@]2(C)NC(=O)CCC12 (stereo not given in full)	< 4.75	5.53	–
COc1cccc(-n2c3nc(=O)n(C)c(=O)c-3nc3ccccc32)c1	–	–	inactive
CCOC(=O)/C(=C\c1ccc(OC)cc1)[Se]c1ccccc1	< 4.70	< 4.70	–
COc1ccc(C2Oc3cc(OC)cc(O)c3C(=O)C2C2C(=O)c3c(O)cc(OC)cc3OC2c2ccc(O)cc2)cc1 (stereo not given)	< 3.70	4.43	–
COC(=O)NC1(NC(=O)OC)NC(=O)c2cc(OC)c(OC)c(OC)c2N1	< 3.70	5.00	–
CC1(C)OC(=O)CC2(C)OC12 (stereo not given)	< 3.70	< 3.70	–
COc1cccc(C2C3=C(COC3=O)Oc3cc4c(cc32)OCO4)c1 (stereo not given)	< 5.70	7.07	–
O=C(O)/C=C/SCCC(=O)O	< 2.85	< 2.85	–

Compound	pEC50	pIC50	outcome
C/C(=N\NC(=S)NCCNC(=S)N/N=C(\C)c1ccccn1)c1ccccn1	< 3.70	5.47	–
CN(C)CCn1c(=O)c2ccc(NCCN3CCNCC3)c3c(=O)c4ccccc4n(c1=O)c23	< 3.70	7.20	–
CN1CCOC(c2ccccc2)O1 (stereo not given)	< 3.60	< 3.60	–
Cc1ccccc1N1C(=O)C(=O)c2cccc(C)c21	< 3.70	4.48	–
O=C1N/C(=N\N=C\c2ccccc2)C(c2ccccc2)O1 (stereo not given)	< 3.70	4.47	–
OCC1OC(n2cnc3c(Cl)nc(Nc4ccccc4)nc32)CC1O (stereo not given)	< 3.70	4.55	–
CCCC1OC(=O)c2ccccc2S1 (stereo not given)	< 3.70	< 3.70	–
BrC/C=C/C[P+](c1ccccc1)(c1ccccc1)c1ccccc1	< 5.28	6.22	–
O=S(=O)(O)CS(=O)(=O)O	< 3.70	< 3.70	–
CCc1ccccc1NC(=O)C(=O)C(C#N)c1ccccc1Cl (stereo not given)	< 3.42	< 3.42	–
Cc1cc(C)c2c(c1)CSCc1cc(C)cc(C)c1-2	–	–	inactive
C=C[C+](CCCC)C(=O)[O-]	3.23	3.20	–
O=C1CCC2(CC(Br)C(=O)c3ccccc32)C(=O)N1 (stereo not given)	< 3.39	4.09	–
CCCCCc1cc(OC(=O)c2c(O)cc(OC)cc2CCCCC)cc(O)c1C(=O)O	< 3.53	4.53	–
O=C(O)c1ccc(C(c2c(O)c3ccccc3oc2=O)c2c(O)c3ccccc3oc2=O)cc1	< 3.70	3.72	–
CN(C)/C=N\c1c(C#N)c(CC#N)nn1-c1ccccc1	< 3.70	< 3.70	–
CC(CCOc1c2ccoc2cc2oc(=O)ccc12)C1=CC(=O)C(C)(C)O1 (stereo not given)	< 3.70	< 3.70	–
COC(=O)Cc1c([C@@]2(C)CCCC(C)(C)C2)ccc2c1C(=O)OC2	–	–	inactive
C/C(=C(/SS/C(C(=O)O)=C(/C)c1cccc(O)c1)C(=O)O)c1cccc(O)c1	< 3.70	3.87	–
O=S(=O)(F)c1ccc(C[P+](c2ccccc2)(c2ccccc2)c2ccccc2)c(Cl)c1	< 3.70	4.34	–
CSc1c(C#N)c(=O)[nH]c2n[nH]c(C)c12	< 3.70	< 3.70	–
